Test results as given in US11279733B2, “Peptide antibiotics” (priority 2017, dated 2022).
In brackets after ≈: the same amount, converted by molar mass. Read-outs that look alike come from different tables or passages of the source. Positions of bridges follow the written chain, without caps; N, C: chain ends. Non-standard residues stand in square brackets, D forms with d. Residues, ends and D or L forms follow the SMILES beside them. *: point of attachment. Isonicotinoyl(2-Ph) = O=C(c1ccnc(-c2ccccc2)c1)*; Benzoyl(4-OPh) = O=C(c1ccc(Oc2ccccc2)cc1)*; Benzoyl(4-Ph) = O=C(c1ccc(-c2ccccc2)cc1)*; Decanoyl(3R-OH) = CCCCCCC[C@@H](O)CC(=O)*; Butanoyl(4-OPh) = O=C(CCCOc1ccccc1)*; X7 = CCC(C)CCCCC(O)CC(=O)*; dDab = NCC[C@@H](N)C(=O)O; Dab = NCC[C@H](N)C(=O)O

Columns and labels:
[1] = system: K. pneumoniae GN_102 PmxR
Method in brief: (§1)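 Mid-log cultures grown in Mueller Hinton broth at 37° C were tested by 2-fold broth microdilution at 5×10^5 CFU/mL final. Compounds were dissolved in water and tested over a final range of 32 to 0.015 μg/mL.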

[2] = system: S. aureus ATCC 25923, MSSA
Method in brief: as §1

[3] = system: A. baumannii ATCC 19606
Method in brief: as §1

[4] = system: K. pneumoniae ATCC 700603, MDR
Method in brief: as §1

[5] = system: P. aeruginosa GN_043, PmxR
Method in brief: as §1

[6] = system: E. coli ATCC 25922
Method in brief: as §1

[7] = system: P. aeruginosa GN_105, PmxR
Method in brief: as §1

[8] = system: K. pneumoniae GN_106, PmxR
Method in brief: as §1

[9] = system: P. aeruginosa ATCC 27853
Method in brief: as §1

[10] = system: A. baumannii GN_093 PmxR
Method in brief: as §1

[11] = system: K. pneumoniae ATCC BAA-2146, NDM-1 pos
Method in brief: as §1

[12] = system: K. pneumoniae ATCC 13883
Method in brief: as §1

[13] = in vitro; settings: human
Method in brief: (§2)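 Cells (4000/well, pre-attached 24 h) then received 5 μM resazurin for 2 h, with fluorescence measured at ex 560/em 590.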

[14] = in vitro; settings: human; remark: listed apart in the source
Method in brief: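 HK2 cells were seeded at 2000 per well in DMEM/F12 with 10% FBS and left to attach for 24 h at 37 °C, 5% CO2. They were then exposed for 24 h to 3-fold peptide dilutions starting from 600 μM solutions in quadruplicate. LDH release was read at 450 nm, and CC50 was fitted from dose-response curves.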

[15] = in vitro; settings: human; remark: listed apart in the source
Method in brief: as §2

SMILES	MIC K. pneumoniae GN_102 PmxR ([1]; GN 102 PmxR)	MIC S. aureus ATCC 25923, MSSA [2]	MIC A. baumannii ATCC 19606 [3]	MIC K. pneumoniae ATCC 700603, MDR [4]	MIC P. aeruginosa GN_043, PmxR ([5]; P. aeruginosa GN_043, PmxR)	MIC E. coli ATCC 25922 [6]	MIC P. aeruginosa GN_105, PmxR ([7]; GN 105, PmxR)	MIC K. pneumoniae GN_106, PmxR ([8]; GN 106, PmxR)	MIC P. aeruginosa ATCC 27853 [9]	MIC A. baumannii GN_093 PmxR ([10]; GN 093 PmxR)	MIC K. pneumoniae ATCC BAA-2146, NDM-1 pos [11]	MIC K. pneumoniae ATCC 13883 [12]	CC50 at 24 h [13]	CC50 at 24 h [14]	CC50 at 24 h [15]	further results
CC(C)C[C@@H]1NC(=O)[C@H](CCN)NC(=O)[C@H](CCN)NC(=O)[C@H](Cc2ccccc2)NC(=O)[C@@H](CC(C)C)NC(=O)[C@H](CCN)NC(=O)[C@@H](NC(=O)[C@@H](CCN)NC(=O)c2ccc(-c3ccccc3)cc2)CCNC1=O [compound 6518, Ph-4-PhCO-D-Dab-cyc[L-Dab-L-Dab-D-Leu-L-Phe-L-Dab-L-Dab-L-Leu]] ({Benzoyl(4-Ph)}-[dDab][Dab][Dab][dL]F[Dab][Dab]L; lactam 2-C)	>32 µg/mL	32 µg/mL (≈ 30.4 µM)	>32 µg/mL	8 µg/mL (≈ 7.59 µM)	2 µg/mL (≈ 1.9 µM)	2 µg/mL (≈ 1.9 µM)	2 µg/mL (≈ 1.9 µM)	32 µg/mL (≈ 30.4 µM)	2 µg/mL (≈ 1.9 µM)	>32 µg/mL	16 µg/mL (≈ 15.2 µM)	16 µg/mL (≈ 15.2 µM)	> 300 µM	180 µM	≥ 300 µM	–
CC(C)C[C@@H]1NC(=O)[C@H](CCN)NC(=O)[C@H](CCN)NC(=O)[C@H](CC(C)C)NC(=O)[C@@H](Cc2ccccc2)NC(=O)[C@H](CCN)NC(=O)[C@@H](NC(=O)[C@@H](CCN)NC(=O)c2ccnc(-c3ccccc3)c2)CCNC1=O [compound 6525, 3Phe4-PyCO-D-Dab-cyc[L-Dab-L-Dab-D-Phe-L-Leu-L-Dab-L-Dab-L-Leu]] ({Isonicotinoyl(2-Ph)}-[dDab][Dab][Dab][dF]L[Dab][Dab]L; lactam 2-C)	16 µg/mL (≈ 15.2 µM)	>32 µg/mL	>32 µg/mL	8 µg/mL (≈ 7.58 µM)	–	4 µg/mL (≈ 3.79 µM)	8 µg/mL (≈ 7.58 µM)	>32 µg/mL	4 µg/mL (≈ 3.79 µM)	>32 µg/mL	16 µg/mL (≈ 15.2 µM)	16 µg/mL (≈ 15.2 µM)	> 300 µM	> 300 µM	> 300 µM	MIC P. aeruginosa GN_043, PmxR [5]: 2 µg/mL (≈ 1.9 µM)
CCC(C)CCCCC(O)CC(=O)N[C@@H](CCN)C(=O)N[C@H]1CCNC(=O)[C@H](CC(C)C)NC(=O)[C@H](CCN)NC(=O)[C@H](CCN)NC(=O)[C@H](CC(C)C)NC(=O)[C@@H](Cc2ccccc2)NC(=O)[C@H](CCN)NC1=O (stereo partly drawn) [compound 5567, nC7(8-Me)CH(OH)CH2CO-L-Dab-cyc[L-Dab-L-Dab-D-Phe-L-Leu-L-Dab-L-Dab-L-Leu]] (X7-[Dab][Dab][Dab][dF]L[Dab][Dab]L; lactam 2-C)	–	–	–	–	–	–	–	–	–	–	–	–	292 µM	54 µM	150 µM	MIC K. pneumoniae GN_102 PmxR ([1]; Table 6, polymyxin-resistant): 8 µg/mL (≈ 7.56 µM); MIC, S. aureus ATCC 25923, MSSA ([2]; Table 6): 32 µg/mL (≈ 30.2 µM); MIC, A. baumannii ATCC 19606 ([3]; Table 6): 8 µg/mL (≈ 7.56 µM); MIC, K. pneumoniae ATCC 700603, MDR ([4]; Table 6): 8 µg/mL (≈ 7.56 µM); MIC P. aeruginosa GN_043, PmxR ([5]; Table 6, polymyxin-resistant): 2 µg/mL (≈ 1.89 µM); MIC, E. coli ATCC 25922 ([6]; Table 6): 8 µg/mL (≈ 7.56 µM); MIC P. aeruginosa GN_105, PmxR ([7]; Table 6, polymyxin-resistant): 2 µg/mL (≈ 1.89 µM); MIC K. pneumoniae GN_106, PmxR ([8]; Table 6, polymyxin-resistant): 4 µg/mL (≈ 3.78 µM); MIC, P. aeruginosa ATCC 27853 ([9]; Table 6): 2 µg/mL (≈ 1.89 µM); MIC A. baumannii GN_093 PmxR ([10]; Table 6, polymyxin-resistant): 16 µg/mL (≈ 15.1 µM); MIC, K. pneumoniae ATCC BAA-2146, NDM-1 pos ([11]; Table 6): 8 µg/mL (≈ 7.56 µM); MIC, K. pneumoniae ATCC 13883 ([12]; Table 6): 8 µg/mL (≈ 7.56 µM)
CCCCCCC[C@@H](O)CC(=O)N[C@@H](CCN)C(=O)N[C@@H]1CCNC(=O)[C@H](CC(C)C)NC(=O)[C@H](CCN)NC(=O)[C@H](CCN)NC(=O)[C@H](CC(C)C)NC(=O)[C@@H](Cc2ccccc2)NC(=O)[C@H](CCN)NC1=O [compound 6658, 3(R)OH-nC9CO-L-Dab-cyc[D-Dab-L-Dab-D-Phe-L-Leu-L-Dab-L-Dab-L-Leu]] ({Decanoyl(3R-OH)}-[Dab][dDab][Dab][dF]L[Dab][Dab]L; lactam 2-C)	>32 µg/mL	>32 µg/mL	>32 µg/mL	>32 µg/mL	>32 µg/mL	>32 µg/mL	>32 µg/mL	>32 µg/mL	32 µg/mL (≈ 30.6 µM)	>32 µg/mL	>32 µg/mL	>32 µg/mL	> 300 µM	> 300 µM	> 300 µM	–
CCCCCCC[C@@H](O)CC(=O)N[C@@H](CCN)C(=O)N[C@@H]1CCNC(=O)[C@H](CC(C)C)NC(=O)[C@H](CCN)NC(=O)[C@H](CCN)NC(=O)[C@H](C)NC(=O)[C@@H](Cc2ccccc2)NC(=O)[C@H](CCN)NC1=O [compound 6660, 3(R)OH-nC9CO-L-Dab-cyc[D-Dab-L-Dab-D-Phe-L-Ala-L-Dab-L-Dab-L-Leu]] ({Decanoyl(3R-OH)}-[Dab][dDab][Dab][dF]A[Dab][Dab]L; lactam 2-C)	>32 µg/mL	>32 µg/mL	>32 µg/mL	>32 µg/mL	>32 µg/mL	>32 µg/mL	>32 µg/mL	>32 µg/mL	>32 µg/mL	>32 µg/mL	>32 µg/mL	>32 µg/mL	> 300 µM	> 300 µM	> 300 µM	–
CC(C)C[C@@H]1NC(=O)[C@H](CCN)NC(=O)[C@H](CCN)NC(=O)[C@H](Cc2ccccc2)NC(=O)[C@@H](CC(C)C)NC(=O)[C@H](CCN)NC(=O)[C@@H](NC(=O)[C@@H](CCN)NC(=O)c2ccc(Oc3ccccc3)cc2)CCNC1=O [compound 6519, Ph-4-OPhCO-D-Dab-cyc[L-Dab-L-Dab-D-Leu-L-Phe-L-Dab-L-Dab-L-Leu]] ({Benzoyl(4-OPh)}-[dDab][Dab][Dab][dL]F[Dab][Dab]L; lactam 2-C)	>32 µg/mL	32 µg/mL (≈ 29.9 µM)	>32 µg/mL	8 µg/mL (≈ 7.47 µM)	1 µg/mL (≈ 0.934 µM)	2 µg/mL (≈ 1.87 µM)	4 µg/mL (≈ 3.74 µM)	32 µg/mL (≈ 29.9 µM)	2 µg/mL (≈ 1.87 µM)	32 µg/mL (≈ 29.9 µM)	16 µg/mL (≈ 14.9 µM)	16 µg/mL (≈ 14.9 µM)	> 300 µM	163 µM	> 300 µM	–
CCCCCCC[C@@H](O)CC(=O)N[C@H](CCN)C(=O)N[C@H]1CCNC(=O)[C@H](CC(C)C)NC(=O)[C@H](CCN)NC(=O)[C@H](CCN)NC(=O)[C@H](CC(C)C)NC(=O)[C@@H](Cc2ccc(O)cc2)NC(=O)[C@H](CCN)NC1=O [compound 5008, 3(R)OH-nC9CO-D-Dab-cyc[L-Dab-L-Dab-D-Tyr-L-Leu-L-Dab-L-Dab-L-Leu]] ({Decanoyl(3R-OH)}-[dDab][Dab][Dab][dY]L[Dab][Dab]L; lactam 2-C)	16 µg/mL (≈ 15.1 µM)	32 µg/mL (≈ 30.2 µM)	32 µg/mL (≈ 30.2 µM)	8 µg/mL (≈ 7.54 µM)	2 µg/mL (≈ 1.89 µM)	8 µg/mL (≈ 7.54 µM)	16 µg/mL (≈ 15.1 µM)	16 µg/mL (≈ 15.1 µM)	1 µg/mL (≈ 0.943 µM)	32 µg/mL (≈ 30.2 µM)	16 µg/mL (≈ 15.1 µM)	16 µg/mL (≈ 15.1 µM)	> 300 µM	106 µM	> 300 µM	–
CC(C)C[C@@H]1NC(=O)[C@H](CCN)NC(=O)[C@H](CCN)NC(=O)[C@H](Cc2ccccc2)NC(=O)[C@@H](CC(C)C)NC(=O)[C@H](CCN)NC(=O)[C@@H](NC(=O)[C@@H](CCN)NC(=O)CCCOc2ccccc2)CCNC1=O [compound 6521, 4-phenoxybutanoic acid-D-Dab-cyc[L-Dab-L-Dab-D-Leu-L-Phe-L-Dab-L-Dab-L-Leu]] ({Butanoyl(4-OPh)}-[dDab][Dab][Dab][dL]F[Dab][Dab]L; lactam 2-C)	16 µg/mL (≈ 15.4 µM)	>32 µg/mL	>32 µg/mL	16 µg/mL (≈ 15.4 µM)	2 µg/mL (≈ 1.93 µM)	8 µg/mL (≈ 7.72 µM)	16 µg/mL (≈ 15.4 µM)	32 µg/mL (≈ 30.9 µM)	2 µg/mL (≈ 1.93 µM)	>32 µg/mL	16 µg/mL (≈ 15.4 µM)	32 µg/mL (≈ 30.9 µM)	> 300 µM	290 µM	> 300 µM	–
